Data: ChEMBL document CHEMBL3885861, “Open TG-GATES”

Species on record: Rattus norvegicus
Test: Open TG-GATES - Regimen: Single
Type: toxicity, organism-based, Sprague-Dawley
Set-up: regimen Single, gender Male, age 6 weeks
Settings: in vivo, ip, 300 mg/kg, route intraperitoneal injection, dose level Middle; for APTT / Bas / Eos / Fbg / Hb / Ht / Lym / MCH / MCHC / MCV / Mono / Neu / PT / Plat / RBC / Ret / WBC: tissue Blood; for KIDNEY_L / KIDNEY_R / KIDNEY_TOTAL: tissue Kidney; for LIVER: tissue Liver; for A/G / ALP / ALT / AST / BUN / CRE / Ca / Cl / DBIL / GLC / IP / K / LDH / Na / PL / RALB / TBIL / TC / TG / TP / gamma-GTP: tissue Plasma

N[C@H]1C(O)O[C@H](CO)[C@@H](O)[C@@H]1O (some centres not stated) [GLUCOSAMINE]
TERMINAL_BW (3 h): 188.6 g
APTT (3 h): 17.5 s
Bas (3 h): 0.4%
Eos (3 h): 0.4%
Fbg (3 h): 247.4 mg/dL
Hb (3 h): 12.6 g/dL
Ht (3 h): 38.9%
Lym (3 h): 67%
MCH (3 h): 21 pg
MCHC (3 h): 32.3%
MCV (3 h): 64.9 fL
Mono (3 h): 4%
Neu (3 h): 27%
PT (3 h): 16.2 s
Plat (3 h): 112.1 x10_4/uL
RBC (3 h): 600.6 x10_4/ul
Ret (3 h): 9.4%
WBC (3 h): 96.7 x10_2/uL
KIDNEY_L (3 h): 0.9 g
KIDNEY_R (3 h): 0.9 g
KIDNEY_TOTAL (3 h): 1.8 g
LIVER (3 h): 8.4 g
A/G (3 h): 0.9
ALP (3 h): 1578.8 IU/L
ALT (3 h): 43.4 IU/L
AST (3 h): 82 IU/L
BUN (3 h): 10.6 mg/dL
CRE (3 h): 0.2 mg/dL
Ca (3 h): 10.5 mg/dL
Cl (3 h): 107.8 meq/L
DBIL (3 h): 0.012 mg/dL
GLC (3 h): 165.8 mg/dL
IP (3 h): 8.9 mg/dL
K (3 h): 4 meq/L
LDH (3 h): 55.6 IU/L
Na (3 h): 142.2 meq/L
PL (3 h): 136.4 mg/dL
RALB (3 h): 2.3 g/dL
TBIL (3 h): 0.052 mg/dL
TC (3 h): 76.6 mg/dL
TG (3 h): 34.8 mg/dL
TP (3 h): 5 g/dL
gamma-GTP (3 h): 1 IU/L
TERMINAL_BW (6 h): 188.8 g
APTT (6 h): 20.1 s
Bas (6 h): 0.2%
Eos (6 h): 1%
Fbg (6 h): 234.4 mg/dL
Hb (6 h): 13.6 g/dL
Ht (6 h): 41.5%
Lym (6 h): 63%
MCH (6 h): 21.3 pg
MCHC (6 h): 32.7%
MCV (6 h): 65.2 fL
Mono (6 h): 2.6%
Neu (6 h): 32.6%
PT (6 h): 18.9 s
Plat (6 h): 107.5 x10_4/uL
RBC (6 h): 636.8 x10_4/ul
Ret (6 h): 9%
WBC (6 h): 50.8 x10_2/uL
KIDNEY_L (6 h): 0.8 g
KIDNEY_R (6 h): 0.8 g
KIDNEY_TOTAL (6 h): 1.6 g
LIVER (6 h): 8.4 g
A/G (6 h): 0.9
ALP (6 h): 1576.2 IU/L
ALT (6 h): 145.8 IU/L
AST (6 h): 213.4 IU/L
BUN (6 h): 13.8 mg/dL
CRE (6 h): 0.2 mg/dL
Ca (6 h): 10.2 mg/dL
Cl (6 h): 107.2 meq/L
DBIL (6 h): 0.01 mg/dL
GLC (6 h): 164.4 mg/dL
IP (6 h): 9 mg/dL
K (6 h): 3.7 meq/L
LDH (6 h): 212.6 IU/L
Na (6 h): 142.4 meq/L
PL (6 h): 129.8 mg/dL
RALB (6 h): 2.3 g/dL
TBIL (6 h): 0.054 mg/dL
TC (6 h): 70 mg/dL
TG (6 h): 17.8 mg/dL
TP (6 h): 4.9 g/dL
gamma-GTP (6 h): 1 IU/L
TERMINAL_BW (9 h): 183.2 g
APTT (9 h): 18.5 s
Bas (9 h): 0%
Eos (9 h): 0.6%
Fbg (9 h): 307.6 mg/dL
Hb (9 h): 12.7 g/dL
Ht (9 h): 39%
Lym (9 h): 73%
MCH (9 h): 21.1 pg
MCHC (9 h): 32.6%
MCV (9 h): 64.7 fL
Mono (9 h): 1.8%
Neu (9 h): 23.6%
PT (9 h): 17.2 s
Plat (9 h): 109.8 x10_4/uL
RBC (9 h): 602.8 x10_4/ul
Ret (9 h): 9.2%
WBC (9 h): 55.1 x10_2/uL
KIDNEY_L (9 h): 0.9 g
KIDNEY_R (9 h): 0.9 g
KIDNEY_TOTAL (9 h): 1.7 g
LIVER (9 h): 7.3 g
A/G (9 h): 0.9
ALP (9 h): 1464 IU/L
ALT (9 h): 40.6 IU/L
AST (9 h): 84.4 IU/L
BUN (9 h): 7.6 mg/dL
CRE (9 h): 0.1 mg/dL
Ca (9 h): 10.3 mg/dL
Cl (9 h): 107.4 meq/L
DBIL (9 h): 0.012 mg/dL
GLC (9 h): 162.2 mg/dL
IP (9 h): 9.9 mg/dL
K (9 h): 3.8 meq/L
LDH (9 h): 54.6 IU/L
Na (9 h): 142 meq/L
PL (9 h): 117.8 mg/dL
RALB (9 h): 2.4 g/dL
TBIL (9 h): 0.06 mg/dL
TC (9 h): 63.4 mg/dL
TG (9 h): 23.6 mg/dL
TP (9 h): 5.2 g/dL
gamma-GTP (9 h): 0.8 IU/L
TERMINAL_BW (24 h): 190.9 g
APTT (24 h): 19.9 s
Bas (24 h): 0.6%
Eos (24 h): 1.4%
Fbg (24 h): 205.8 mg/dL
Hb (24 h): 14.1 g/dL
Ht (24 h): 43.4%
Lym (24 h): 70%
MCH (24 h): 20.9 pg
MCHC (24 h): 32.5%
MCV (24 h): 64.3 fL
Mono (24 h): 3.8%
Neu (24 h): 23%
PT (24 h): 25.4 s
Plat (24 h): 102.4 x10_4/uL
RBC (24 h): 675.6 x10_4/ul
Ret (24 h): 7.9%
WBC (24 h): 79.5 x10_2/uL
KIDNEY_L (24 h): 0.8 g
KIDNEY_R (24 h): 0.9 g
KIDNEY_TOTAL (24 h): 1.7 g
LIVER (24 h): 8.1 g
A/G (24 h): 0.9
ALP (24 h): 2031.4 IU/L
ALT (24 h): 214.6 IU/L
AST (24 h): 341.6 IU/L
BUN (24 h): 13.4 mg/dL
CRE (24 h): 0.2 mg/dL
Ca (24 h): 10.3 mg/dL
Cl (24 h): 107 meq/L
DBIL (24 h): 0.068 mg/dL
GLC (24 h): 165.4 mg/dL
IP (24 h): 9.1 mg/dL
K (24 h): 4.3 meq/L
LDH (24 h): 168 IU/L
Na (24 h): 143.8 meq/L
PL (24 h): 118.2 mg/dL
RALB (24 h): 2.4 g/dL
TBIL (24 h): 0.1 mg/dL
TC (24 h): 57.2 mg/dL
TG (24 h): 42 mg/dL
TP (24 h): 5.2 g/dL
gamma-GTP (24 h): 1 IU/L
